Laboratory results taken from US12091398B2, “PD-L1 antagonist compound” (ADLAI NORTYE BIOPHARMA CO., LTD., priority 2019, dated 2024).

test system: PD-1/PD-L1 interaction; experiment: Cell based PD-1/PD-L1 NFAT reporter assay; set-up: species or system human; settings: Homo sapiens, 6 h, PD-1/NFAT-Reporter-Jurkat cells co-cultured with TCR activator/PD-L1-CHO cells; 6 hour incubation; luciferase; calibrated to Atezolizumab 10 nM; read-out: Absolute EC50
Protocol: Cell Based PD-1/PD-L1 NFAT Reporter Assay
Compounds of the present patent were tested in a cell based PD-1/PD-L1 NFAT reporter assay.
The cell-based luciferase reporter assay is used for monitoring the PD-1/PD-L1 inhibitor by characterizing the biological activity of PD-1: PD-L1 interactions in cellular context. PD-1/NFAT-Reporter-Jurkat cells stably over-expressing human PD-1 with NFAT reporter are used as effector cells. TCR activator/PD-L1—CHO cells over-expressing PD-L1 and an engineered T cell receptor (TCR) activator are used as target cells. When these two cells are co-cultivated, TCR complexes on effector cells are activated by TCR activator on target cells, resulting in expression of the NFAT luciferase reporter. However, PD1 and PD-L1 (or PD-L2) ligation prevents TCR activation and suppresses the NFAT-responsive luciferase activity. This inhibition can be specifically reversed by anti-PD1 or anti-PD-L1 inhibitors. PD1/PD-L1 inhibitors block PD1:PD-L1 interaction and promote TCR activation, resulting in reactivation of the NFAT responsive luciferase reporter.
PD-1/NFAT—Reporter—Jurkat cell (Cat: 60535) and TCR activator/PD-L1—CHO cell (Cat: 60536) were purchased from BPS Bioscience. Anti-human PD-L1 antibody (Atezolizumab, Cat: A2004) was purchased from Selleck; luciferase reporter gene expression detection kit (ONE-Glo™ Luciferase Assay System, Cat: E6120) was purchased from Promega; multifunction plate reader (SpectraMax i3x) was purchased from Molecular Devices.
PD-1/NFAT—Reporter—Jurkat cells and TCR activator/PD-L1—CHO cells were cultured in recommended media respectively.
Harvest TCR activator/PD-L1-CHO cells from culture and seed cells at a density of 35,000 cells per well into 96-well microplate in 100 µl of growth medium. Incubate cells at 37° C. in a CO2 incubator overnight. Next day, discard the culture media, add diluted compound in assay medium for 30 min. Anti-PD-L1 antibody (Atezolizumab, final concentration 10 nM) and 0.1% DMSO were the positive and negative control, respectively. Harvest the PD-1/NFAT-reporter-Jurkat cells by centrifugation and add to the wells. After 6 hour incubation, perform luciferase assay using the ONE-Glo™ Luciferase Assay System, following the manufacturer's assay protocol.
Anti-PD-L1 antibody (Atezolizumnab, 10 nM) was used as positive control to calibrate the inhibition rate using the following equation: % inhibition=(Sample luminescence/Average vehicle group luminescence−1)/(Average PD-L1 group luminescence/Average vehicle group luminescence−1)×100%.

EC50 | Compound
997 nM | O=C1CC(COc2cc(OCc3cccc(-c4cccc5c4cnn5CCCCN4CC[C@@H](O)C4)c3Br)c(Cl)cc2CN[C@@H](CO)C(=O)O)CN1 (some centres unmarked) [Compound 48]
> 10000 nM | O=C(O)[C@H](CO)NCc1cc(Cl)c(OCc2cccc(-c3cccc4c3cnn4CCCCN3CC[C@@H](O)C3)c2Br)cc1OCC(=O)N1CC[C@@H](O)C1 [Compound 49, (4-((2-bromo-3-(1-(4-((R)-3-hydroxypyrrolidin-1-yl)butyl)-1H-indazol-4-yl)benzyl)oxy)-5-chloro-2-(2-((R)-3-hydroxypyrrolidin-1-yl)-2-oxoethoxy)benzyl)-L-serine]
2820 nM | CCNC(=O)COc1cc(OCc2cccc(-c3cccc4c3cnn4CCCCN3CC[C@@H](O)C3)c2Br)c(Cl)cc1CN[C@@H](CO)C(=O)O [Compound 50]
3080 nM | NC(=O)CNC(=O)COc1cc(OCc2cccc(-c3cccc4c3cnn4CCCCN3CC[C@@H](O)C3)c2Br)c(Cl)cc1CN[C@@H](CO)C(=O)O [Compound 51]
> 10000 nM | CN(C)CCNC(=O)COc1cc(OCc2cccc(-c3cccc4c3cnn4CCCCN3CC[C@@H](O)C3)c2Br)c(Cl)cc1CN[C@@H](CO)C(=O)O [Compound 52]
> 10000 nM | COCCNC(=O)COc1cc(OCc2cccc(-c3cccc4c3cnn4CCCCN3CC[C@@H](O)C3)c2Br)c(Cl)cc1CN[C@@H](CO)C(=O)O [Compound 53]
339 nM | Cc1c(OCCCN2CC[C@@H](O)C2)cccc1-c1cccc2c1cnn2Cc1cc(OCc2cncc(C#N)c2)c(CN[C@@H](CO)C(=O)O)cc1Cl [Compound 54, (5-chloro-2-((5-cyanopyridin-3-yl)methoxy)-4-((4-(3-(3-((R)-3-hydroxypyrrolidin-1-yl)propoxy)-2-methylphenyl)-1H-indazol-1-yl)methyl)benzyl)-L-serine]
1150 nM | N#Cc1cncc(COc2cc(Cn3ncc4c(-c5cccc(OCCCN6CC[C@@H](O)C6)c5Br)cccc43)c(Cl)cc2CN[C@@H](CO)C(=O)O)c1 [Compound 55, (4-((4-(2-bromo-3-(3-((R)-3-hydroxypyrrolidin-1-yl)propoxy)phenyl)-1H-indazol-1-yl)methyl)-5-chloro-2-((5-cyanopyridin-3-yl)methoxy)benzyl)-L-serine]
163 nM | COc1cc(OCc2cccc(-c3cccc4c3cnn4Cc3cc(OCc4cncc(C#N)c4)c(CN[C@@H](CO)C(=O)O)cc3Cl)c2C)c(Cl)cc1CN[C@@H](CO)C(=O)O [Compound 56, (4-((3-(1-(4-((((S)-1-carboxy-2-hydroxyethyl)amino)methyl)-2-chloro-5-((5-cyanopyridin-3-yl)methoxy)benzyl)-1H-indazol-4-yl)-2-methylbenzyl)oxy)-5-chloro-2-methoxybenzyl)-L-serine]
53 nM | Cc1c(COc2cc(OCc3cncc(C#N)c3)c(CN[C@@H](CO)C(=O)O)cc2Cl)cccc1-c1cccc2c1cnn2Cc1cc(OCc2cncc(C#N)c2)c(CN[C@@H](CO)C(=O)O)cc1Cl [Compound 57, (4-((3-(1-(4-((((S)-1-carboxy-2-hydroxyethyl)amino)methyl)-2-chloro-5-((5-cyanopyridin-3-yl)methoxy)benzyl)-1H-indazol-4-yl)-2-methylbenzyl)oxy)-5-chloro-2-((5-cyanopyridin-3-yl)methoxy)benzyl)-L-serine]
1710 nM | N#Cc1cncc(COc2cc(OCc3cccc(-c4cccc5c4cnn5Cc4ccc(CN[C@@H](CO)C(=O)O)cc4)c3Br)c(Cl)cc2CN[C@@H](CO)C(=O)O)c1 [Compound 58, (4-((4-(2-bromo-3-((4-((((S)-1-carboxy-2-hydroxyethyl)amino)methyl)-2-chloro-5-((5-cyanopyridin-3-yl)methoxy)phenoxy)methyl)phenyl)-1H-indazol-1-yl)methyl)benzyl)-L-serine]
220 nM | N#Cc1cncc(COc2cc(OCc3cccc(-c4cccc5c4cnn5Cc4ccc(CN[C@@H](CO)C(=O)O)cc4Cl)c3Br)c(Cl)cc2CN[C@@H](CO)C(=O)O)c1 [Compound 59, (4-((4-(2-bromo-3-((4-((((S)-1-carboxy-2-hydroxyethyl)amino)methyl)-2-chloro-5-((5-cyanopyridin-3-yl)methoxy)phenoxy)methyl)phenyl)-1H-indazol-1-yl)methyl)-3-chlorobenzyl)-L-serine]
1850 nM | CC(CO)(CO)NCc1cc(Cl)c(Cn2ncc3c(-c4cccc5c4cnn5CCCN4CC[C@@H](O)C4)cccc32)cc1OCc1cncc(C#N)c1 [Compound 60, (R)-5-((4-chloro-2-(((1,3-dihydroxy-2-methylpropan-2-yl)amino)methyl)-5-((1′-(3-(3-hydroxypyrrolidin-1-yl)propyl)-1H,1′H-[4,4′-biindazol]-1-yl)methyl)phenoxy)methyl)nicotinonitrile]
124 nM | N#Cc1cncc(COc2cc(Cn3ncc4c(-c5cccc6c5cnn6Cc5cc(OCc6cncc(C#N)c6)c(CN[C@@H](CO)C(=O)O)cc5Cl)cccc43)c(Cl)cc2CN[C@@H](CO)C(=O)O)c1 [Compound 61, (2S,2'S)-2,2′-((((1H,1′H-[4,4′-biindazole]-1,1′-diylbis(methylene))bis(5-chloro-2-((5-cyanopyridin-3-yl)methoxy)-4,1-phenylene))bis(methylene))bis(azanediyl))bis(3-hydroxypropanoic acid)]
550 nM | Cc1c(COc2cc(OCc3cncc(C#N)c3)c(CN[C@@H](CO)C(=O)OC(C)C)cc2Cl)cccc1-c1cccc2c1cnn2Cc1cc(OCc2cncc(C#N)c2)c(CN[C@@H](CO)C(=O)O)cc1Cl [Compound 64, (5-chloro-4-((4-(3-((2-chloro-5-((5-cyanopyridin-3-yl)methoxy)-4-((((S)-3-hydroxy-1-isopropoxy-1-oxopropan-2-yl)amino)methyl)phenoxy)methyl)-2-methylphenyl)-1H-indazol-1-yl)methyl)-2-((5-cyanopyridin-3-yl)methoxy)benzyl)-L-serine]
418 nM | Cc1c(COc2cc(OCc3cncc(C#N)c3)c(CN[C@@H](CO)C(=O)O)cc2Cl)cccc1-c1cccc2c1cnn2Cc1cc(OCc2cncc(C#N)c2)c(CN[C@@H](CO)C(=O)OC(C)C)cc1Cl [Compound 65, (5-chloro-4-((3-(1-(2-chloro-5-((5-cyanopyridin-3-yl)methoxy)-4-((((S)-3-hydroxy-1-isopropoxy-1-oxopropan-2-yl)amino)methyl)benzyl)-1H-indazol-4-yl)-2-methylbenzyl)oxy)-2-((5-cyanopyridin-3-yl)methoxy)benzyl)-L-serine]
307 nM | COc1cc(Cn2ncc3c(-c4cccc(COc5cc(OC)c(CN[C@@H](CO)C(=O)O)cc5Cl)c4C)cccc32)c(Cl)cc1CN[C@@H](CO)C(=O)O [Compound 66, (4-((3-(1-(4-((((S)-1-carboxy-2-hydroxyethyl)amino)methyl)-2-chloro-5-methoxybenzyl)-1H-indazol-4-yl)-2-methylbenzyl)oxy)-5-chloro-2-methoxybenzyl)-L-serine]
89 nM | COc1cc(Cn2ncc3c(-c4cccc(COc5cc(OCc6cncc(C#N)c6)c(CN[C@@H](CO)C(=O)O)cc5Cl)c4C)cccc32)c(Cl)cc1CN[C@@H](CO)C(=O)O [Compound 67, (4-((4-(3-((4-((((S)-1-carboxy-2-hydroxyethyl)amino)methyl)-2-chloro-5-((5-cyanopyridin-3-yl)methoxy)phenoxy)methyl)-2-methylphenyl)-1H-indazol-1-yl)methyl)-5-chloro-2-methoxybenzyl)-L-serine]
348 nM | COc1cc(OCc2cccc(-c3cccc4c3cnn4Cc3cc(OCc4cncc(C#N)c4)c(CNCCO)cc3Cl)c2C)c(Cl)cc1CNCCO [Compound 68, 5-((4-chloro-5-((4-(3-((2-chloro-4-(((2-hydroxyethyl)amino)methyl)-5-methoxyphenoxy)methyl)-2-methylphenyl)-1H-indazol-1-yl)methyl)-2-(((2-hydroxyethyl)amino)methyl)phenoxy)methyl)nicotinonitrile]
157 nM | COc1cc(OCc2cccc(-c3cccc4c3cnn4Cc3cc(OCc4cncc(C#N)c4)c(CNC[C@@H]4CCC(=O)N4)cc3Cl)c2C)c(Cl)cc1CNC[C@@H]1CCC(=O)N1 [Compound 69, 5-((4-chloro-5-((4-(3-((2-chloro-5-methoxy-4-(((((S)-5-oxopyrrolidin-2-yl)methyl)amino)methyl)phenoxy)methyl)-2-methylphenyl)-1H-indazol-1-yl)methyl)-2-(((((S)-5-oxopyrrolidin-2-yl)methyl)amino)methyl)phenoxy)methyl)nicotinonitrile]
